{"source": "patent US10259786B2", "about": "“Psychotropic agents and uses thereof” (LB PHARMACEUTICALS INC., priority 2016, dated 2019)", "key": {"[1]": {"test_system": "PCP-treated rats", "assay": "Novel Object Recognition (NOR) assay, sub-chronic PCP", "assay_type": "in vivo, rat", "settings": "PO; for difference between novel and familiar object exploration time: 3 hours post-dose, all doses save one; for known object exploration behavior in rats treated with PCP: compared to untreated rats", "protocol": "Efficacy of Compounds 102 and 103 was evaluated in rats in a Novel Object Recognition (NOR) assay, a well-established model recapitulating cognitive and negative aspects of the PANSS scale of schizophrenia. In this assay, animals were treated for several weeks with a low dose of phencyclidine (PCP) to impair the ability of the rat to discern between novel and familiar objects. Typically rats, like humans, would spend more time exploring a novel object than a familiar one.\nRats (n=10/group) were dosed with 2 mg/kg intraperitoneal twice a day (i.p., b.i.d.) for seven days followed by 7 days drug free. […] Novel object exploration time was measured for the test subjects from a sub-chronic PCP NOR study in rats (n=10/group). The differences in exploration time between novel (Tnovel¬) and familiar (Tfamliar) objects are depicted in FIG. 1A (*: p<0.05; and **: p<0.01)."}, "[2]": {"biological_target": "D1 receptor (Homo sapiens (Human), UniProt P21728)", "sequence (P21728 whole entry)": "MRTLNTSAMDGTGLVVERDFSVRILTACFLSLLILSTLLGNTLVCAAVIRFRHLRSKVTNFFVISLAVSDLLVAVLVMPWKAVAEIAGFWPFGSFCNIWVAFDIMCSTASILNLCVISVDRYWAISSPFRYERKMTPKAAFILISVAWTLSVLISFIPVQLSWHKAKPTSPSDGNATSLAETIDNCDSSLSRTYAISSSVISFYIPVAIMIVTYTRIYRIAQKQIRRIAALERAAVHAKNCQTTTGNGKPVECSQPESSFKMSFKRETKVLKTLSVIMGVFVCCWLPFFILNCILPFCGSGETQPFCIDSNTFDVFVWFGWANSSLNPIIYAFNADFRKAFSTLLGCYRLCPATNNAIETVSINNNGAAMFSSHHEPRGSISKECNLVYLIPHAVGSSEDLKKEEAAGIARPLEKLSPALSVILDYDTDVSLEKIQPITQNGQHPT", "settings": "D1 receptor subtype; cited from earlier work"}, "[3]": {"biological_target": "D4 receptor (Homo sapiens (Human), UniProt P21917)", "sequence (P21917 whole entry)": "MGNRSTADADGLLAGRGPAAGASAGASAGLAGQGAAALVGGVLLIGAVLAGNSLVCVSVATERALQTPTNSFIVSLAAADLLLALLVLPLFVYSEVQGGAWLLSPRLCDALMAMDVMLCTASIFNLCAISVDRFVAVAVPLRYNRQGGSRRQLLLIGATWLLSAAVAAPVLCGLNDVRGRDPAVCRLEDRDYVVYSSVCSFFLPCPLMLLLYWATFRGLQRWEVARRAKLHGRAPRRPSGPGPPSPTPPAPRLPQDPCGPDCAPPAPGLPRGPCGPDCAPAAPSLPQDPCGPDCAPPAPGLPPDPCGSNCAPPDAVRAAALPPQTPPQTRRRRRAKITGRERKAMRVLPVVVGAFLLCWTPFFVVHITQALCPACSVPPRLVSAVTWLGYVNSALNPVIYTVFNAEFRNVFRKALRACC", "settings": "D4 receptor subtype; cited from earlier work"}, "[4]": {"biological_target": "D5 receptor (Homo sapiens (Human), UniProt P21918)", "sequence (P21918 whole entry)": "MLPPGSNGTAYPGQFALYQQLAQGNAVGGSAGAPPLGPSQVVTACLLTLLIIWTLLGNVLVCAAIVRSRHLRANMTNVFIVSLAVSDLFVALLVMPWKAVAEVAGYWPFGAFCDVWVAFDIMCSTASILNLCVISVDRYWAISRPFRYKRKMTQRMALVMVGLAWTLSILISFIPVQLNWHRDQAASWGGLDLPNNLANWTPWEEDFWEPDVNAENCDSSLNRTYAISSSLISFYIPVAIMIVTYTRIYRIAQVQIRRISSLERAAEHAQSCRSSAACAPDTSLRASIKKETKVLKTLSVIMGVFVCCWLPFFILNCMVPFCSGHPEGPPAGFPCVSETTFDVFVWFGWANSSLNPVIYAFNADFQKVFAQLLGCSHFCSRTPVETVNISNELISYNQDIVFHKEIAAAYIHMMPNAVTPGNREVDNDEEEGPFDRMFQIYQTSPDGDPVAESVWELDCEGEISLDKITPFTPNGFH", "settings": "D5 receptor subtype; cited from earlier work"}, "[5]": {"settings": "2014 study, 30 psychiatric drugs tested; cited from earlier work"}}, "data": [{"smiles": "CCN1CCC[C@H]1CNC(=O)c1cc(S(=O)(=O)CC)c(NC)cc1OC", "note": "[Compound 103, ((S)-4-methylamino-N-((1-ethyl-2-pyrrolidinyl)methyl)-5-(ethylsulfonyl))-2-methoxybenzamide]", "values": [{"measurement": "difference between novel and familiar object exploration time", "setting": "[1]", "result": "increased"}, {"measurement": "known object exploration behavior in rats treated with PCP", "setting": "[1]", "result": "able to restore known object exploration behavior in rats treated with PCP to levels similar to untreated rats"}]}, {"smiles": "CCN1CCCC1CNC(=O)c1cc(S(=O)(=O)CC)c(N)cc1OC", "note": "(centres unmarked) [Amisulpride, 4-amino-N-(((1-ethyl-2-pyrrolidinyl)methyl)-5-(ethylsulfonyl))-2-methoxybenzamide]", "values": [{"measurement": "affinity", "setting": "[2]", "result": "without any affinity"}, {"measurement": "affinity", "setting": "[3]", "result": "without any affinity"}, {"measurement": "affinity", "setting": "[4]", "result": "without any affinity"}, {"measurement": "passive diffusion across a PAMPA membrane (Pe)", "setting": "[5]", "result": "lowest of 30 psychiatric drugs tested"}]}, {"smiles": "CCN1CCCC1CNC(=O)c1cc(S(=O)(=O)CC)c(NC)cc1OC", "note": "(centres unmarked) [Compound 102]", "values": [{"measurement": "difference between novel and familiar object exploration time", "setting": "[1]", "result": "increased"}, {"measurement": "known object exploration behavior in rats treated with PCP", "setting": "[1]", "result": "able to restore known object exploration behavior in rats treated with PCP to levels similar to untreated rats"}]}]}
